Results as given in patent publication US20240092800A1, “USP13 INHIBITORS AND METHODS OF USE THEREOF” (GEORGETOWN UNIVERSITY, priority 2021, published 2024).

Key:
human USP13 = molecular target: T1, human USP13 (Homo sapiens, UniProt Q92995); experiment: USP13 activity via ELISA in SHSY5Y cells; assay type: cell-based
T1 construct: USP13 activity via ELISA in human SHSY5Y neuroblastoma cells; endogenous in cells; host or cells: human SH-SY5Y neuroblastoma cells (transiently transfected with human wild-type alpha-synuclein, not with USP13)
T1 sequence (Q92995 1-863): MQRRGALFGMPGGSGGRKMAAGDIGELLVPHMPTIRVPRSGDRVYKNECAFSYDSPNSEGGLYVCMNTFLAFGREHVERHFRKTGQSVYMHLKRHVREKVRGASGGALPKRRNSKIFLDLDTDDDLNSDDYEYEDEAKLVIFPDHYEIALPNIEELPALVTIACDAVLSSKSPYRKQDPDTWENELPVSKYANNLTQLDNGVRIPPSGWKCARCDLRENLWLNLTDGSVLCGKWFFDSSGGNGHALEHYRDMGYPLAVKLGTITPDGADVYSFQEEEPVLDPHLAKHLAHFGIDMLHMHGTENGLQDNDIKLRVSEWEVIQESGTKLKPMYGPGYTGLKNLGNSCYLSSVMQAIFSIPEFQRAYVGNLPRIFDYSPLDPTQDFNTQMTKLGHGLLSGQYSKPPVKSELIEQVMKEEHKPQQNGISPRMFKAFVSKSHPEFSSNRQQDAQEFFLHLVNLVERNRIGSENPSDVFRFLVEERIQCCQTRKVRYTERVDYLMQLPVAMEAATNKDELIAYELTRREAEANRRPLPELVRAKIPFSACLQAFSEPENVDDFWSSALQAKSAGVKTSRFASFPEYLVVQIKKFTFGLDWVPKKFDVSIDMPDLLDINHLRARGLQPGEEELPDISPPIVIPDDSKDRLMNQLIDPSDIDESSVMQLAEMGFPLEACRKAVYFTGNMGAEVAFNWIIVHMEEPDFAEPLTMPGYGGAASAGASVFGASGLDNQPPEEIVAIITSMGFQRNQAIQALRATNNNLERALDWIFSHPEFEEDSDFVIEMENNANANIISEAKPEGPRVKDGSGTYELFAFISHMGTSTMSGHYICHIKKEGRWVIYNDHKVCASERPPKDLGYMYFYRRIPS
Description: Cell lines, transfection, and treatment.
A total of 25 μL soluble protein was incubated overnight at 4° C. with 25 μL of a mixed bead solution. After washing, samples were incubated with 25 μL detection antibody solution for 1.5 hours at room temperature. Streptavidin-phycoerythrin (25 μL) was added to each well containing the 25 μL of detection antibody solution. Samples were then washed and suspended in 100 μL of sheath fluid. Samples were then run on MAGPIX with Xponent software. The median fluorescent intensity (MFI) data were analyzed using a 5-parameter logistic or spline curve-fitting method for calculating analyte concentrations in samples. Specific alpha-synuclein ELISAs were performed on tissue soluble extracts from midbrain lysates in 1XSTEN buffer. The ELISA for USP13 (MyBioSource, Cat # MBS9335287), Human alpha-synuclein (Biolegend, Cat #844101) and specific p-Tau ser396 (Invitrogen, KHB7031) were performed on cell or brain tissue extracts as described above according to manufacturers' protocol.
Statistical and Data Analysis. All statistical analyses were performed using GraphPad Prism version 5.0 (GraphPad software, Inc, San Diego, CA, USA). Two-tailed student's t-test was used in comparison of means of two groups. Ordinary one-way analysis of variance (ANOVA) followed by Newman-Keuls or Dunnett comparison post hoc tests were used in comparison of means of multiple groups. Asterisks denote actual p-value significances (*<0.05, **<0.01, ***<0.001 and ****<0.0001), and N is the number of animals or the number of independent experiments (cell culture) per group. Unless otherwise indicated, data are expressed as Mean±SD. IC50 to USP13 levels was also estimated using GraphPad Prism version 5.0 (GraphPad software, Inc, San Diego, CA, USA).

[1] = system: alpha-synuclein ubiquitination; experiment: Alpha-synuclein ubiquitination in TgA53T mice (IP/WB, immunostaining co-localization); assay type: in vivo, mouse; settings: midbrain extracts, 40 mg/kg compared to DMSO and 10 mg/kg
Description: Immunoprecipitation (IP). Mouse brain tissues were homogenized in 1×STEN buffer, and the soluble fraction was isolated as indicated above. The lysates were pre-cleaned with immobilized recombinant protein A/G agarose (Santa Crutz, sc-2003, Dallas, TX, USA) and centrifuged at 2500×g for 1 min at 4° C. The supernatant was recovered and quantified by protein assay, and a total of 300 μg protein was incubated overnight at 4° C. with primary anti-alpha-synuclein (1:200, Thermofisher, AHB0261) mouse antibodies or anti-ubiquitin (1:100) (Thermo Fisher, PA3-16717, Rockford, IL, USA) antibodies in the presence of sepharose G and an IgG control with primary antibodies. The immunoprecipitates were collected by centrifugation at 2500×g for 3 min at 4° C., washed 5× in PBS, with spins of 3 min, 2500×g using detergent-free buffer for the last washing step, and the proteins were eluted according to Pierce instructions (Pierce #20365, Rockford, IL, USA). […]
Immunohistochemistry was performed on the 20 μm thick brain sections for evaluation of ubiquitination of alpha-synuclein. […] The optic densitometry of co-localization of ubiquitin with alpha-synuclein was measured using Image J. Tyrosine hydroxylase (TH) is the limiting enzyme in DA synthesis, so probing for TH+ neurons will help to evaluate the status of DA producing neurons in the SN and their terminals in the striatum. […]

[2] = system: human SHSY5Y neuroblastoma cells; experiment: Cell viability by MTT and LDH assays; settings: 5 hours, up to 1 mM concentration
Description: Human SHSY-5Y neuroblastoma cells were cultured in Dulbecco's Modified Eagle's Medium (DMEM) (ThermoFisher Scientific; Waltham, MA) with 10% Fetal Bovine Serum (FBS) (ThermoFisher) and 1% Penicillin-Streptomycin (PenStrep, ThermoFisher) and incubated at 37° C. under atmospheric oxygen concentrations (21%) with 5% CO2. SHSY-5Y cells were cultured in DMEM with Ham's F12 (1:1) (ThermoFisher) with 20% FBS, 1% PenStrep. Cells were plated at a density tailored to reach 70-80% confluence at the beginning of every experiment. SH-SY5Y cells were transiently transfected for 24 hours with human wild-type α-synuclein using Fugene HD transfection reagent (Promega; Madison, WI) before fresh culture media and drug were added.
Cell viability was determined via lactate dehydrogenase assay on culture media, (ThermoFisher) and MTT assay on plated cells (ThermoFisher).

Fc1ccc2nccc(OCc3ccccc3)c2c1 [4-(Benzyloxy)-6-fluoroquinoline]
IC50 (human USP13; SHSY5Y cell line, estimated with GraphPad Prism, read-out: IC50 to inhibit USP13 activity): 78 nM
USP13 activity via ELISA (human USP13; SHSY5Y cells, 5 hours, concentration range of 1 nM-1 mM): significantly reduce the activity of human USP13
alpha-synuclein ubiquitination by immunoprecipitation and WB [1]: increased ubiquitination
cell death in two viability assays (MTT and LDH) [2]: do not cause cell death
